Laboratory results as given in paper PMC7019173, “Stapled peptide targeting the CDK4/Cyclin D interface combined with Abemaciclib inhibits KRAS mutant lung cancer growth” (Theranostics, 2020).
Blank lines part the entries; values can stand above or below the compound they belong to. Where a SMILES comes first, the peptide text is derived from it. Bridges are numbered along the chain shown (N, C = ends). [ ]: non-standard residue; d: D form. S5 = C=CCCC[C@](C)(N)C(=O)O

Assays:
[1] = Solubility of stapled peptides; assay type: physicochemical
[2] = system: H358 orthotopic lung tumours; assay: Antitumour efficacy in mice with orthotopic lung tumour; assay type: in vivo
Protocol: Luciferase-modified human H358 NSCLC cells (H358-Luc cells) were suspended in medium with 10 mM EDTA and 5 mg/mL Matrigel (BD Biosciences) at 5.10^6 cells/50 μL. Six-week-old female NMRI nude mice (Janvier, Le Genest, Saint Isle, France) were anesthetized (isoflurane/air 4% for induction and 1.5% thereafter), and cells were inoculated in the lungs via the airways as previously described, [48]. Non-invasive in vivo bioluminescence imaging (IVIS Kinetic, Perkin-Elmer) was used 10 min after the intraperitoneal injection of 10 mg/mL D-Luciferin (Promega, Charbonnières, France) to monitor the quality of the implantation and to follow orthotopic growth, [48]. […] Five weeks after the inoculation of H358-Luc cells, when bioluminescent orthotopic tumours were detected, nude mice were randomly divided into 6 groups. […] To determine proliferative index, total and Ki67 positive tumour epithelial cells were scored on two to eight fields per mouse in three or four mice per group, and reported as percentage of Ki67 positive cells. […] Total and p-RB positive tumour epithelial cells were scored on two to twenty-nine fields per mouse in three or four mice per group, and reported as percentage of p-RB positive cells in each field and each treatment group.

[3] = system: A549 cells; assay: Flow cytometry cell cycle analysis; assay type: cell-based, human; details: 24 h, Abemaciclib 0.5 and 5 µM, Ctrl stapled peptide 10 µM, P2short 1 or 10 µM
Protocol: Cells were trypsinized and fixed in 70% ice cold ethanol, washed in PBS and resuspended in PBS-1% BSA-50 mM citrate with 25 µg/mL RNase A for 15 min at 37 °C, supplemented with 25 µg/mL of propidium iodide for 30 min at room temperature. For each condition 20000 events were analysed by Gallios (Beckman Coulter) and data analysis was performed using FlowJo Software.

[4] = system: A549 cells; assay: cells; assay type: cell-based, human; details: Homo sapiens, A549; 48 hours, crystal violet, at least two independent experiments (n=4/experiment) ± SD, Grafit; read-out: IC50 A549 cell proliferation
Protocol: Non-small cell lung cancer A549, H358 and PC9 cell lines used in this study. Cell culture media, serum and antibiotics were purchased from Life Technologies. All cell lines were cultured in RPMI + Glutamax supplemented with 10% FCS, 100 units/mL penicillin (G sodium salt) and 100 µg/mL streptomycin at 37 °C in an atmosphere containing 5% CO2. […] Stock solutions of drugs were prepared in DMSO and freshly diluted in PBS to the desired concentration prior to use, then added onto unsynchronized cells cultured to subconfluency (60-70%), which were then further incubated for 24, 48 or 72 h. Cell proliferation was determined by crystal violet assay following treatment with drugs. Cells were washed with PBS, fixed with 3.7% formaldehyde for 10 min and then incubated with 0.1% crystal violet dye for 30 min. After rinsing, crystals were dissolved in 10% acetic acid and viability was determined by measuring absorbance at 595 nm.

[5] = target: T1, GST-cyclin D1 (Homo sapiens, UniProt P24385); assay: Fluorescence titration of TP2-Rho-labelled peptides with GST-cyclin D1; assay type: binding; details: 200 nM TP2-Rho labelled peptide titrated with GST-cyclin D1, PBS, 30 °C, average of n = 3 to 5 ± SD
T1 construct: made in house; host or cells: E. coli
T1 sequence (P24385 whole entry): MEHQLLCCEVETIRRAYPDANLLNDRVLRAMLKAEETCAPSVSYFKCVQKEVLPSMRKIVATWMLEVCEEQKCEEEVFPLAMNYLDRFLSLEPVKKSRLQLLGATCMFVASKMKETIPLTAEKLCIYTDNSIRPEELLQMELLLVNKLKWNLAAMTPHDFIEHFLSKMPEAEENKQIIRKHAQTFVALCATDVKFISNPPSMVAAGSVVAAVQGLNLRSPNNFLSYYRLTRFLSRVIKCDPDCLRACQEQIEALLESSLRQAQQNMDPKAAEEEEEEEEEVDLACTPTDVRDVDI
Protocol: (§1) TP2-Rho-labelled peptides: peptides were labelled on a unique cysteine residue with a five-fold molar excess of TP2-Rho-maleimide overnight, and then purified from free dye on NAP-5 columns (GE Healthcare), as described previously.
Recombinant GST-CDK4 and GST-cyclin D1 were expressed in E. coli by IPTG induction and purified by FPLC chromatography as described previously.
(§2) Fluorescence titration assays were performed in 96-well plates in a thermostated chamber (Clariostar spectrofluorimeter, BMG) at 30 °C in 200 μL phosphate buffer saline using 200 nM fluorescently-labelled peptides or proteins. The fluorescence emission intensity of TP2-Rho-labelled peptides was recorded at 614 nm following excitation at 510 nm. The fluorescence emission intensity of mant-ATP was measured at […]. Data analysis was performed using the GraFit Software (Erathicus Ltd) and curve fitting was performed using a quadratic equation, as described previously. Experiments were performed in triplicate, and Kd values represent the average calculated for n = 3 to 5 experiments, together with standard deviation.

[6] = Circular dichroism, determination of alpha helical content; assay type: physicochemical
Protocol: CD experiments were carried out using a Jasco J815 spectropolarimeter. Spectra were recorded with 100 μM of peptides dissolved in phosphate buffer 50 mM, pH 7, using a 1 mm pathlength CD cuvette at 20 °C, over a wavelength range of 190-260 nm. Continuous scanning mode was used, with a response of 1.0 s with 0.1 nm steps and a bandwidth of 2 nm. The signal to noise ratio was improved by acquiring each spectrum over an average of two scans. Baseline was corrected by subtracting the background from the sample spectrum.
Alpha helical content was determined using the following equation: % Helix = ([θ])obs * 100)/(-39500 * (1-2.57/n), where ([θ])obs is the mean residue ellipticity at 222 nm and n the number of peptide bonds.

[7] = target: C4D peptide derived from the alpha 5 helix of cyclin D1 (Homo sapiens, UniProt P24385); assay: Fluorescence titration of TP2-Rho-labelled C4D peptide with CDK4 C helix-derived peptides; assay type: binding; details: 200 nM TP2-Rho labelled C4D peptide, PBS, 30 °C, average of n = 3 to 5 ± SD
Chain of C4D peptide derived from the alpha 5 helix of cyclin D1 (P24385 whole entry): as above
Protocol: as §1, §2

[8] = circular dichroism; details: 50 mM phosphate buffer; pH 7; 20 °C; 100 uM

- solubility [1]: poorly soluble
SMILES: CC[C@H](C)[C@H](NC(=O)[C@@H]1CCCN1C(=O)[C@H](CC(C)C)NC(=O)CNC(C)=O)C(=O)N[C@@H](CO)C(=O)N[C@H](C(=O)N[C@H](C(=O)N[C@@H](CCCNC(=N)N)C(=O)N[C@@H](CCC(=O)O)C(=O)N[C@H](C(=O)N[C@@H](C)C(=O)N[C@@H](CC(C)C)C(=O)N[C@@]1(C)CCCC=CCCC[C@@](C)(C(=O)N[C@@H](C)C(=O)N[C@@H](Cc2ccccc2)C(=O)N[C@@H](CCC(=O)O)C(N)=O)NC(=O)[C@H](CC(C)C)NC(=O)[C@H](CCCNC(=N)N)NC(=O)[C@H](CCCNC(=N)N)NC1=O)C(C)C)C(C)C)[C@@H](C)O [P3] (Ac-GLPISTVREVAL[S5]RRL[S5]AFE-NH2; staple 13-17)

- IC50 [4]: 2.72 ± 2.21 µM
SMILES: CCN1CCN(Cc2ccc(Nc3ncc(F)c(-c4cc(F)c5nc(C)n(C(C)C)c5c4)n3)nc2)CC1 [Abemaciclib]
- effect on H358 orthotopic tumour growth, single agent ([2]; bioluminescence, 3 weeks, Abemaciclib 10 mg/kg daily oral, P2shortA 0.45 mg/kg intrapulmonary 2 times a week, n=10): slightly reduced tumour growth
- Ki67 or pRb levels in tumours, single agent ([2]; intrapulmonary P2shortA or Abemaciclib alone, immunohistochemistry): did not reduce Ki67 or pRb levels
- effect on the cell cycle (proportion of cells in G1) [3]: significantly increased the proportion of cells in G1

- Kd [5]: 0.043 ± 0.024 µM
- % helix (alpha helical content) ([6]; CD, 100 μM peptide in phosphate buffer 50 mM, pH 7, 20 °C, from mean residue ellipticity at 222 nm): 7%
- helicity upon addition of 25% TFE ([6]; CD, phosphate buffer with 25% TFE): 46%
- conformation in solution (CD) ([6]; phosphate buffer): disordered
- Kd [7]: 0.083 ± 0.045 µM
SMILES: CC[C@H](C)[C@H](NC(=O)[C@@H]1CCCN1C(=O)[C@@H](N)CS)C(=O)N[C@@H](CO)C(=O)N[C@H](C(=O)N[C@H](C(=O)N[C@@H](CCCNC(=N)N)C(=O)N[C@@H](CCC(=O)O)C(=O)N[C@H](C(=O)N[C@@H](C)C(=O)N[C@@H](CC(C)C)C(=O)N[C@@H](CC(C)C)C(=O)N[C@@H](CCCNC(=N)N)C(=O)N[C@@H](CCCNC(=N)N)C(=O)N[C@@H](CC(C)C)C(=O)N[C@@H](CCC(=O)O)C(=O)N[C@@H](C)C(=O)N[C@@H](Cc1ccccc1)C(=O)N[C@@H](CCC(=O)O)C(N)=O)C(C)C)C(C)C)[C@@H](C)O [CDK4 C peptide] (H-CPISTVREVALLRRLEAFE-NH2)
- helicity [8]: 7%
